Format in all cases: in vitro ADME
The test system of one series is other P450 isoforms. The series is described as follows: Nine-P450 cocktail inhibition in human liver microsomes, statements on the other P450 isoforms. The note with it: inhibitor 5 μM; HLMs. On the procedure: (§1) The inhibitory potential of the five biflavonoids on the metabolism of nine P450 probe substrates was evaluated using previously developed methods with minor modifications. Biflavonoids were dissolved in methanol. The final concentration of methanol in the incubation mixture was 1.0% (v/v). We used these P450 probe substrates: phenacetin for CYP1A2, coumarin for CYP2A6, bupropion for CYP2B6, amodiaquine for CYP2C8, diclofenac for CYP2C9, omeprazole for CYP2C19, dextromethorphan for CYP2D6, chlorzoxazone for CYP2E1 and midazolam for CYP3A (Table 1). The incubation mixtures containing pooled human liver microsomes (HLMs, XTreme 200, XenoTech), P450 probe substrates, and inhibitor (0~20 µM) were pre-incubated at 37 °C for 5 min. The concentration range of the inhibitor varied (0, 0.002, 0.005, 0.02, 0.05, and 0.2 µM for CYP2C8; 0, 0.02, 0.05, 0.2, 0.5, and 2 µM for CYP2C9; 0, 0.5, 2, 5, 10, and 20 µM for other P450 isoforms). After pre-incubation, a reduced nicotinamide adenine dinucleotide phosphate (NADPH) generation system containing 1 unit/ml G6PDH, 1.3 mM β- nicotinamide adenine dinucleotide phosphate (β- NADP^+), 3.3 mM MgCl2, and 3.3 mM G6P was added to initiate a reaction, and further incubated for 10 min at 37 °C. The reaction was stopped by adding 50 μL of ice-cold acetonitrile containing 7 nM trimipramine (internal standard, IS). After centrifugation at 18,000 g (5 min, 4 °C), aliquots of supernatants were analyzed by LC–MS/MS (Shimadzu LCMS 8060 system, Shimadzu, Kyoto, Japan). All microsomal incubations were conducted in triplicate.
(§2) All metabolites and the IS were separated on a Kinetex XB-C18 column (100 × 2.10 mm, 2.6 μm, 100 Å; Phenomenex, Torrance, CA, USA) and analyzed using a Shimadzu LCMS 8060 triple-quadrupole mass spectrometer coupled with a Nexera X2 ultra high-performance liquid chromatography system (Shimadzu, Kyoto, Japan) equipped with an electrospray ionization interface. The mobile phase consisted of 0.1% formic acid in water (A) and 0.1% formic acid in acetonitrile (B). […] Electrospray ionization was performed in positive-ion mode at 4000 V or in negative-ion mode at −3500 V. The optimum operating conditions were determined as follows: vaporizer temperature, 300 °C; capillary temperature, 350 °C; collision gas (argon) pressure, 1.5 mTorr. Quantitation was conducted in selected reaction monitoring (SRM) modes with the precursor-to-product ion transition for each metabolite (Table 1 and Table 2).
(§3) We analyzed the data with Shimadzu LabSolution LC–MS software. The IC50 values were calculated by WinNonlin software (Pharsight, Mountain View, CA, USA). […]
Background: Microsomes from liver hold many membrane-bound enzymes, among them those of drug oxidation.

The test system of series [1] is the other eight P450 enzymes (isoforms other than CYP2C8). Described as above. Particulars: human, pooled human liver microsomes; isoforms other than CYP2C8; HLMs. On the procedure: as §1, §2, §3
The target in another series is T1, CYP2C8 (Homo sapiens, UniProt P10632).
T1 sequence (P10632 1-490): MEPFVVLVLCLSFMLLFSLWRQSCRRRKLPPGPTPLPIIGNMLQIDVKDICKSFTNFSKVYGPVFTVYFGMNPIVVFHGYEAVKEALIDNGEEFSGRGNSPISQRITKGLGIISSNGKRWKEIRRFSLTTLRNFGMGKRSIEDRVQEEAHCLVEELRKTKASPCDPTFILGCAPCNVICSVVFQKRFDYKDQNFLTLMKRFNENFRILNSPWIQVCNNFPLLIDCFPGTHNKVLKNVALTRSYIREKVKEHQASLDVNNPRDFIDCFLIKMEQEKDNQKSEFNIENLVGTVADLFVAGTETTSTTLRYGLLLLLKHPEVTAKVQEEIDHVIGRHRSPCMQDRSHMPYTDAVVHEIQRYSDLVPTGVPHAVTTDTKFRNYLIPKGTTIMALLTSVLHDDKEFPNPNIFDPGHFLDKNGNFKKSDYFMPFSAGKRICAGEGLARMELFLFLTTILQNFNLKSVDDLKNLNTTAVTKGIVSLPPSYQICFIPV
The series is described as follows: Time-dependent inhibition (IC50 shift) of CYP2C8, amodiaquine, human liver microsomes. More on the design: incubation mixtures containing pooled human liver microsomes (HLMs, XTreme 200, XenoTech); tissue XenoTech XTreme 200; host or cells: pooled human liver microsomes. On the procedure:
The time-dependent inhibition of selamariscina A against CYP2C8 and CYP2C9 enzymes was evaluated using an IC50 shift method. Selamariscina A was pre-incubated at six concentrations (0, 0.002, 0.005, 0.02, 0.05, and 0.2 μM) with HLMs in the presence of an NDAPH generation system for 30 min at 37 °C. The reaction was initiated by adding 1 μM amodiaquine or 10 μM diclofenac and further incubated for 10 min. Incubation was terminated by adding 50 μL of ice-cold acetonitrile containing 7 nM trimipramine. After centrifugation, aliquots of supernatants were analyzed by LC–MS/MS.
All metabolites and the IS were separated on a Kinetex XB-C18 column (100 × 2.10 mm, 2.6 μm, 100 Å; Phenomenex, Torrance, CA, USA) and analyzed using a Shimadzu LCMS 8060 triple-quadrupole mass spectrometer coupled with a Nexera X2 ultra high-performance liquid chromatography system (Shimadzu, Kyoto, Japan) equipped with an electrospray ionization interface. The mobile phase consisted of 0.1% formic acid in water (A) and 0.1% formic acid in acetonitrile (B). The elution condition was set as 8% B (0–0.5 min), 8%→60% B (0.5–5 min), 60% B (5–6 min), 60%→8% B (6–6.1 min) and 8% B (6.1–9 min) for the analysis of metabolites of P450 probe substrates and set as 0%→40% B (0–1 min), 40%→50% B (1–5 min), 50%→0% B (5–5.1 min), and 0% B (5.1–8 min) for the analysis of metabolites of UGT probe substrates. The flow rate was 0.2 mL/min. Electrospray ionization was performed in positive-ion mode at 4000 V or in negative-ion mode at −3500 V. The optimum operating conditions were determined as follows: vaporizer temperature, 300 °C; capillary temperature, 350 °C; collision gas (argon) pressure, 1.5 mTorr. Quantitation was conducted in selected reaction monitoring (SRM) modes with the precursor-to-product ion transition for each metabolite (Table 1 and Table 2).
as §3

Series [2] has as its system other P450 isoforms (other than CYP2C8 and CYP2C9). The series is described as follows: Nine-P450 cocktail inhibition in human liver microsomes, statements on the other P450 isoforms. The note with it: human, pooled human liver microsomes; inhibitor 0.5 μM; HLMs; isoforms other than CYP2C8 and CYP2C9; read-out: Inhibition of the other P450 isoform-specific activities. On the procedure: as §1, §2, §3

Series [3] concerns CYP2C8 and CYP2C9 versus seven other P450s (CYP1A2, 2A6, 2B6, 2C19, 2D6, 2E1, 3A). The description is as above. Particulars: human, pooled human liver microsomes; amodiaquine and diclofenac activities versus seven other P450s. The method, then: as §1, §2, §3

Experimental findings from article PMC7238120, “Strong and Selective Inhibitory Effects of the Biflavonoid Selamariscina A against CYP2C8 and CYP2C9 Enzyme Activities in Human Liver Microsomes” (Pharmaceutics, 2020) are described below.

The inhibition is the relative decrease from the control value, in per cent.

Like-named read-outs stand apart in the source and are kept apart here. A value given as a limit tells only on which side of the number the result lay.

Turning to `CC(C)(O)c1ccccc1CC[C@@H](SCC1(CC(=O)O)CC1)c1cccc(/C=C/c2ccc3ccc(Cl)cc3n2)c1` [montelukast, reference compound], in the series with other P450 isoforms, the “Inhibition of the other six P450 isoforms” value was “negligible inhibition”. This compound displayed an IC50 at 10 min in series [1] above 9730 nM.
Regarding `O=C1CC(c2cc(-c3c(O)ccc4c(=O)cc(-c5ccc(O)cc5)oc34)c(O)cc2O)Oc2cc(O)cc(O)c21` (stereo not shown) [selamariscina A], the IC50 stood at 31 nM at CYP2C8 (30 min pre-incubation at 37 °C with NADPH generation system, read-out: IC50, CYP2C8 amodiaquine, HLMs pre-incubated with NADPH generation system) and 19 nM at CYP2C8 (no NADPH pre-incubation, read-out: IC50, CYP2C8 amodiaquine, untreated HLMs). Further, the “Time-dependent inhibition of CYP2C8” value on CYP2C8 (IC50 shift method) is recorded as “not a time-dependent inhibitor”. For the same compound, the inhibition at 10 min, 0.5 µM in series [2] is at most 21.8%. For the same compound, the selectivity ratio at 10 min in series [3] is above 50.
